The text below walks through data of patent US9636418B2 (priority 2013, dated 2017).

For orientation: IC50 means the concentration needed to halve the response being measured.

Holding throughout (experiment): cell-based
In one assay the target is hNav1.4 (Homo sapiens, UniProt P35499). The note with it: for IC50: PatchXpress, tonic block, read-out: PX hNav1.4 Tonic IC50.
A further assay concerns the target hNav1.5 (Homo sapiens, UniProt Q14524).
The target of a further assay is hNav1.7 (Homo sapiens, UniProt Q15858). It is filed as cell-based. The note with it: PatchXpress, tonic block; read-out: PX hNav1.7 Tonic IC50.

“And” between values parts separate entries of the source, which are not always exact repeats. Equal values may be shown once. Read-outs that look alike come from different tables or passages of the source.

Chain of hNav1.7 (Q15858 whole entry): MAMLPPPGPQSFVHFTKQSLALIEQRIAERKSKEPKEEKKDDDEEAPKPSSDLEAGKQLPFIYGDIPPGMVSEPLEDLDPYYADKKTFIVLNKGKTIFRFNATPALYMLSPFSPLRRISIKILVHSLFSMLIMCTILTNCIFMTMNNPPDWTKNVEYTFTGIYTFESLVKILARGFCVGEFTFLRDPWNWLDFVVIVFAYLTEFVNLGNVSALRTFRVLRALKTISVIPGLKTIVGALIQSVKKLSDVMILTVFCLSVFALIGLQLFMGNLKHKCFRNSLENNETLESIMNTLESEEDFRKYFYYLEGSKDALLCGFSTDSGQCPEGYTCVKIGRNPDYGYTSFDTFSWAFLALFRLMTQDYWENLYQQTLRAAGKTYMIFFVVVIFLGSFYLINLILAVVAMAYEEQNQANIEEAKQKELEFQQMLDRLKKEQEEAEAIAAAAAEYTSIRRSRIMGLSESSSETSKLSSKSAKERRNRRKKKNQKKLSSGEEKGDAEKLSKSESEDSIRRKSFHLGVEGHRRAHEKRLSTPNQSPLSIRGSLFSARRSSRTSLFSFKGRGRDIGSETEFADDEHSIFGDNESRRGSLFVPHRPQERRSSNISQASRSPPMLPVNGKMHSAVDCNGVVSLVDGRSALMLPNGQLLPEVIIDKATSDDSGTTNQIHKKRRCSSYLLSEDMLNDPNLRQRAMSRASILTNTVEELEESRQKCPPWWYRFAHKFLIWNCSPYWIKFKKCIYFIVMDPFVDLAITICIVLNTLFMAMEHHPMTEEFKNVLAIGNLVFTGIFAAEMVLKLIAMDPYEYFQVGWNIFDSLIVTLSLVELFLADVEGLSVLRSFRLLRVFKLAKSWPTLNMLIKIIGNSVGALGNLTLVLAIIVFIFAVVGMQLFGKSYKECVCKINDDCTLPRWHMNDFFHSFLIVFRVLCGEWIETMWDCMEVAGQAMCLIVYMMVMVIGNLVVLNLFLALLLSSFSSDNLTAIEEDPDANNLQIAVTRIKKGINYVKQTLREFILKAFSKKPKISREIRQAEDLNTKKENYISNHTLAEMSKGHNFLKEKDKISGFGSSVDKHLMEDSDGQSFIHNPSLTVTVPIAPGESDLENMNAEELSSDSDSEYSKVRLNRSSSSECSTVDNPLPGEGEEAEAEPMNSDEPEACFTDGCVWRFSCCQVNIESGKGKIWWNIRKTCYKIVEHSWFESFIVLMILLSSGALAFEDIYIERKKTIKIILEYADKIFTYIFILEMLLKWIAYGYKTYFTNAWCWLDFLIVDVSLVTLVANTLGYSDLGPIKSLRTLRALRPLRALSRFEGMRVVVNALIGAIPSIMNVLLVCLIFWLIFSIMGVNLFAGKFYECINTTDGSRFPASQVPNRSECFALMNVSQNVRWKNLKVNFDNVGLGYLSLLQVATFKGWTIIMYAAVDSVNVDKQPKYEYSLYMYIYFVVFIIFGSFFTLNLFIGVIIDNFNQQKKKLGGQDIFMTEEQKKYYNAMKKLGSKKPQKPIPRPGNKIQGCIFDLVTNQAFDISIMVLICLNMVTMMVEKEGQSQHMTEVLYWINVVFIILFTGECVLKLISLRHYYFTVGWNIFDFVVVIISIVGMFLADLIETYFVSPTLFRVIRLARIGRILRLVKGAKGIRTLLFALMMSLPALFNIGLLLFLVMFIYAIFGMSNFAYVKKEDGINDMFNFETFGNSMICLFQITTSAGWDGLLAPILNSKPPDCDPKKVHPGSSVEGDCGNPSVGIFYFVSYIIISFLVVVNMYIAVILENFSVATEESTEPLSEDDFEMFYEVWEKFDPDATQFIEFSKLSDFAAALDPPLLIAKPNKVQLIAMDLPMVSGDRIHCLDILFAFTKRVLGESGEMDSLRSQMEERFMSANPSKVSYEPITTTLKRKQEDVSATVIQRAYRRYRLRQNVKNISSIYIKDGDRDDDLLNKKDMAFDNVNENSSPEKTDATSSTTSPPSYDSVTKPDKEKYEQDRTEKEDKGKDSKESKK
Chain of hNav1.5 (Q14524 whole entry): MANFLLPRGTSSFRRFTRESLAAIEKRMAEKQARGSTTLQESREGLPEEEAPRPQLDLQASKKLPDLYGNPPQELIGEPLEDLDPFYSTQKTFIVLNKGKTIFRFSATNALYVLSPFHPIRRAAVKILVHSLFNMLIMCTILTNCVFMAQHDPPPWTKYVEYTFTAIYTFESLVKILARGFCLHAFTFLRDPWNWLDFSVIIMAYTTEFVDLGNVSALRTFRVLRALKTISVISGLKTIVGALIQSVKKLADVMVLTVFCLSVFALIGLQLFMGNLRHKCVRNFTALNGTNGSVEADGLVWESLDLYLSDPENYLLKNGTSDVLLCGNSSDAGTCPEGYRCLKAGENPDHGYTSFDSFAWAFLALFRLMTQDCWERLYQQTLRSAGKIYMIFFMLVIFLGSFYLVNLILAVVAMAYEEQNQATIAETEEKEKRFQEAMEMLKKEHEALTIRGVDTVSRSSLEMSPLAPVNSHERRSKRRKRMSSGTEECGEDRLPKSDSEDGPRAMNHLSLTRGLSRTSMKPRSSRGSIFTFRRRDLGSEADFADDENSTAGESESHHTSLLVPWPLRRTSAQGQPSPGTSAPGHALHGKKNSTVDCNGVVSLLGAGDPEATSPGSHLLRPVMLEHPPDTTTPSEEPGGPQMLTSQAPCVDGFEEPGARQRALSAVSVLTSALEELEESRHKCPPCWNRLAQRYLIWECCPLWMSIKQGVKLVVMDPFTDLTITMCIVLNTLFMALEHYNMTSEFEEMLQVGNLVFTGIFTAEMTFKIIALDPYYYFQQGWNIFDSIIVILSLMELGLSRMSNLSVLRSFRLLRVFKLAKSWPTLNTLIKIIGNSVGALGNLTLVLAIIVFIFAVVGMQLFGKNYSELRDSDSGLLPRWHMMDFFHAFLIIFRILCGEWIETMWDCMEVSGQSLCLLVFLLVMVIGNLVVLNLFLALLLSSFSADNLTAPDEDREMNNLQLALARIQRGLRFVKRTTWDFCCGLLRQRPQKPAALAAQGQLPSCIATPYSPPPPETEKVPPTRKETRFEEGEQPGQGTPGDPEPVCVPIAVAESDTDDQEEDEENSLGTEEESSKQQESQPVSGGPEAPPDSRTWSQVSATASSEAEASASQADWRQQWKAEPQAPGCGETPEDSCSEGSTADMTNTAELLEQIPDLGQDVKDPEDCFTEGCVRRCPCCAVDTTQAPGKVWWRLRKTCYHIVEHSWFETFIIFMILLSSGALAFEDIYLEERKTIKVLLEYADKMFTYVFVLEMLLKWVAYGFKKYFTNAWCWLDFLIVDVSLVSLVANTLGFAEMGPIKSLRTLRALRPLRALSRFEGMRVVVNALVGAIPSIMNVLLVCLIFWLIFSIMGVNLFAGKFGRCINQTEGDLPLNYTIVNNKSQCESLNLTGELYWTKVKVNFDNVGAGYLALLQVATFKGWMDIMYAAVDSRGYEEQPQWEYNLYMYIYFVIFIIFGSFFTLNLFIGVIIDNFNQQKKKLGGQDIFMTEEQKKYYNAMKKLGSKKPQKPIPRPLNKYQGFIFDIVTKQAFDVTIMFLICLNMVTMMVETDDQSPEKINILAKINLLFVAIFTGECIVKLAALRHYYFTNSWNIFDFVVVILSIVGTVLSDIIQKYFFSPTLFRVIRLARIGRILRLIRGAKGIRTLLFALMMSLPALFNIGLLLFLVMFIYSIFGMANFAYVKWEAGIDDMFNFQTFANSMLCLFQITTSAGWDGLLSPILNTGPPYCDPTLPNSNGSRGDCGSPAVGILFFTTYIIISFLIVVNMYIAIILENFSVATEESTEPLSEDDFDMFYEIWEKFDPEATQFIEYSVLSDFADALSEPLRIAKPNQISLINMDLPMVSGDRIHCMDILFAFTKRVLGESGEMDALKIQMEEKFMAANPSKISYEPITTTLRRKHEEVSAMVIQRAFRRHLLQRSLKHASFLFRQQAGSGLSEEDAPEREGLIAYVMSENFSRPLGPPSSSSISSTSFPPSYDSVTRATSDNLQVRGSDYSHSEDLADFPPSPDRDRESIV

On to `CCCC[C@@H]1NC(=O)[C@H](Cc2c[nH]c3ccccc23)NC(=O)[C@H](CCCCN)NC(=O)[C@H](CCC(N)=O)NC(=O)[C@@H](NC(=O)[C@H](Cc2ccc(O)cc2)NC(=O)[C@@H](N)Cc2cn(CCOCCOCCOCCOCCOCCOCCOCCOCCOCCOCCOCCOCCOCCOCCOCCOCCOCCOCCOCCOCCOCCOCCOCCNC(=O)c3cc(CNC(=O)CSCc4ccccc4)cc(C(=O)NCCOCCOCCOCCOCCOCCOCCOCCOCCOCCOCCOCCOCCOCCOCCOCCOCCOCCOCCOCCOCCOCCOCCOCCn4cc(C[C@H](N)C(=O)N[C@@H](Cc5ccc(O)cc5)C(=O)N[C@H]5CSSC[C@@H]6NC(=O)[C@@H]7CSSC[C@@H](C(=O)N[C@@H](CCCNC(=N)N)C(=O)N[C@@H](CCCCN)C(=O)N[C@H](C(=O)N[C@H](C(N)=O)[C@@H](C)CC)[C@@H](C)CC)NC(=O)[C@H](Cc8c[nH]c9ccccc89)NC(=O)[C@H](CC(C)C)NC(=O)[C@H](CCCCN)NC(=O)[C@H](CSSC[C@H](NC(=O)[C@H]([C@@H](C)O)NC(=O)[C@H](Cc8c[nH]c9ccccc89)NC(=O)[C@H](CCCC)NC(=O)[C@H](Cc8c[nH]c9ccccc89)NC(=O)[C@H](CCCCN)NC(=O)[C@H](CCC(N)=O)NC5=O)C(=O)N[C@@H](CC(=O)O)C(=O)N[C@@H](CO)C(=O)N[C@@H](CCCCN)C(=O)N[C@@H](CCCNC(=N)N)C(=O)N[C@@H](C)C(=O)N7)NC(=O)[C@H](CCCNC(=N)N)NC(=O)[C@H](CC(C)C)NC(=O)CNC(=O)[C@H](CCC(=O)O)NC6=O)nn4)c3)nn2)CSSC[C@@H]2NC(=O)[C@@H]3CSSC[C@@H](C(=O)N[C@@H](CCCNC(=N)N)C(=O)N[C@@H](CCCCN)C(=O)N[C@H](C(=O)N[C@H](C(N)=O)[C@@H](C)CC)[C@@H](C)CC)NC(=O)[C@H](Cc4c[nH]c5ccccc45)NC(=O)[C@H](CC(C)C)NC(=O)[C@H](CCCCN)NC(=O)[C@H](CSSC[C@H](NC(=O)[C@H]([C@@H](C)O)NC(=O)[C@H](Cc4c[nH]c5ccccc45)NC1=O)C(=O)N[C@@H](CC(=O)O)C(=O)N[C@@H](CO)C(=O)N[C@@H](CCCCN)C(=O)N[C@@H](CCCNC(=N)N)C(=O)N[C@@H](C)C(=O)N3)NC(=O)[C@H](CCCNC(=N)N)NC(=O)[C@H](CC(C)C)NC(=O)CNC(=O)[C@H](CCC(=O)O)NC2=O` [Homodimeric Conjugate No. 2, Bis-{Atz(PEG23*)-[Nle6]JzTx-V(1-29)}-5-((2-(benzylthio)acetamido)methyl)isophthalamide], for which the Nav1.4/Nav1.7 at hNav1.4 (ratio of PX IC50 values) is 5 and 3. Also, the IC50 on hNav1.5 (PatchXpress, * = at high concentrations compound would wash off slowly or not at all, read-out: PX hNav1.5 Tonic IC50) was 720 nM and 1180 nM.
In the case of `CSCC[C@@H]1NC(=O)[C@H](Cc2c[nH]c3ccccc23)NC(=O)[C@H](CCCCN)NC(=O)[C@H](CCC(N)=O)NC(=O)[C@@H](NC(=O)[C@@H](N)Cc2ccc(O)cc2)CSSC[C@@H]2NC(=O)[C@@H]3CSSC[C@@H](C(=O)N[C@@H](CCCCN)C(=O)N[C@@H](Cc4ccc(O)cc4)C(=O)N[C@@H](CC(N)=O)C(=O)N[C@@H](CC(C)C)C(N)=O)NC(=O)[C@H](Cc4c[nH]c5ccccc45)NC(=O)[C@H](CC(C)C)NC(=O)[C@H](CCC(=O)O)NC(=O)[C@H](CSSC[C@H](NC(=O)[C@H]([C@@H](C)O)NC(=O)[C@H](Cc4c[nH]c5ccccc45)NC1=O)C(=O)N[C@@H](CC(=O)O)C(=O)N[C@@H](CO)C(=O)N[C@@H](CCC(=O)O)C(=O)N[C@@H](CCCNC(=N)N)C(=O)N[C@@H](CCCCN)C(=O)N3)NC(=O)[C@H](C(C)C)NC(=O)[C@H](Cc1ccc(O)cc1)NC(=O)CNC(=O)[C@H](CCC(=O)O)NC2=O` [compound 48], the Nav1.4/Nav1.7 at hNav1.4 is recorded as 3. On hNav1.5, this compound displayed a Nav1.5/Nav1.7 of 61.
As to `C#CC[C@H](N)C(=O)NCCOCCOCCOCCOCCC(=O)NCCCC[C@@H]1NC(=O)[C@H](CCCNC(=N)N)NC(=O)[C@H](CCCCN)NC(=O)[C@H](CO)NC(=O)[C@H](CC(=O)O)NC(=O)[C@@H]2CSSC[C@@H]3NC(=O)[C@H](CCCNC(=N)N)NC(=O)[C@H](CC(C)C)NC(=O)CNC(=O)[C@H](CCC(=O)O)NC(=O)[C@H](CSSC[C@H](NC(=O)[C@H](Cc4ccc(O)cc4)NC(=O)[C@@H](N)CCC)C(=O)N[C@@H](CCC(N)=O)C(=O)N[C@@H](CCCCN)C(=O)N[C@@H](Cc4c[nH]c5ccccc45)C(=O)N[C@@H](CCCC)C(=O)N[C@@H](Cc4c[nH]c5ccccc45)C(=O)N[C@@H]([C@@H](C)O)C(=O)N2)NC(=O)[C@H](CSSC[C@@H](C(=O)N[C@@H](CCCNC(=N)N)C(=O)N[C@@H](CCCCN)C(=O)N[C@H](C(=O)N[C@H](C(N)=O)[C@@H](C)CC)[C@@H](C)CC)NC(=O)[C@H](Cc2c[nH]c4ccccc24)NC(=O)[C@H](CC(C)C)NC(=O)[C@H](CCCCN)NC3=O)NC1=O` [compound 432], the half-inhibitory concentration (IC50) is 16.5 nM at hNav1.4; 1.43 nM and 1.56 nM at hNav1.7. The Nav1.4/Nav1.7 at hNav1.4 (ratio of PX tonic IC50 values) worked out at 12.
Take `C#CC[C@H](N)C(=O)NCCCC[C@@H]1NC(=O)[C@H](CCCNC(=N)N)NC(=O)[C@H](CCCCN)NC(=O)[C@H](CO)NC(=O)[C@H](CC(=O)O)NC(=O)[C@@H]2CSSC[C@@H]3NC(=O)[C@H](CCCNC(=N)N)NC(=O)[C@H](CC(C)C)NC(=O)CNC(=O)[C@H](CCC(=O)O)NC(=O)[C@H](CSSC[C@H](NC(=O)[C@H](Cc4ccc(O)cc4)NC(=O)[C@@H](N)CCC)C(=O)N[C@@H](CCC(N)=O)C(=O)N[C@@H](CCCCN)C(=O)N[C@@H](Cc4c[nH]c5ccccc45)C(=O)N[C@@H](CCCC)C(=O)N[C@@H](Cc4c[nH]c5ccccc45)C(=O)N[C@@H]([C@@H](C)O)C(=O)N2)NC(=O)[C@H](CSSC[C@@H](C(=O)N[C@@H](CCCNC(=N)N)C(=O)N[C@@H](CCCCN)C(=O)N[C@@H](CCC(=O)O)C(=O)N[C@H](C(N)=O)[C@@H](C)CC)NC(=O)[C@H](Cc2c[nH]c4ccccc24)NC(=O)[C@H](CC(C)C)NC(=O)[C@H](CCCCN)NC3=O)NC1=O` [compound 435]: the IC50 at hNav1.4 was 217 nM; on hNav1.7, 2.19 nM. The Nav1.4/Nav1.7 on hNav1.4 (ratio of PX tonic IC50 values) was 99.
Turning to `C#CC[C@H](N)C(=O)NCCCC[C@@H]1NC(=O)[C@H](CCCNC(=N)N)NC(=O)[C@H](CCCCN)NC(=O)[C@H](CO)NC(=O)[C@H](CC(=O)O)NC(=O)[C@@H]2CSSC[C@@H]3NC(=O)[C@H](CCCNC(=N)N)NC(=O)[C@H](CC(C)C)NC(=O)CNC(=O)[C@H](CCC(=O)O)NC(=O)[C@H](CSSC[C@H](NC(=O)[C@H](Cc4ccc(O)cc4)NC(=O)[C@@H](N)CCC)C(=O)N[C@@H](CCC(N)=O)C(=O)N[C@@H](CCCCN)C(=O)N[C@@H](Cc4c[nH]c5ccccc45)C(=O)N[C@@H](CC(C)C)C(=O)N[C@@H](Cc4c[nH]c5ccccc45)C(=O)N[C@@H]([C@@H](C)O)C(=O)N2)NC(=O)[C@H](CSSC[C@@H](C(=O)N[C@@H](CCCNC(=N)N)C(=O)N[C@@H](CCCCN)C(=O)N[C@H](C(=O)N[C@H](C(N)=O)[C@@H](C)CC)[C@@H](C)CC)NC(=O)[C@H](Cc2c[nH]c4ccccc24)NC(=O)[C@H](CC(C)C)NC(=O)[C@H](CCCCN)NC3=O)NC1=O` [compound 438], the IC50 is 16.1 nM at hNav1.4; 2.38 nM and 1.57 nM on hNav1.7. Also, the Nav1.4/Nav1.7 at hNav1.4 (ratio of PX tonic IC50 values) is listed as 7.
